US11779597B2, “Method of treating Parkinson's and other neurodegenerative diseases” (Vector Vitale IP LLC, priority 2019, dated 2023)
Marks after values point to notes of the source that are not given here.

Legend:
[1] = tested on: circulating phagocytes (monocytes and neutrophils); assay: Hemogram and functional profile of circulating phagocytes in 6-OHDA rat models after prophylactic administration; assay type: in vivo; conditions: prophylactic i.p.
Procedure: Methods: Adult mature rodents were used in the study. […] Before prophylactic administration of the experimental drugs, the animals underwent an open field test to assay their general locomotor activity levels and anxiety. The prophylactic course consisted of 10 daily intraperitoneal injections of the drugs (in the case of combination drug, its components were administered at an interval of 2 hours). After the end of prophylactic course, Parkinson's disease was modelled in the animals. […] Ten days after the last (second) apomorphine test, the animals' behavioral responses were assessed in the open field test followed by euthanasia and analysis of functional (metabolic and phenotypic) profiles of phagocytes of different localization. Thus, the study of the functional profile of phagocytes in rat models of Parkinson's disease was performed on day 28 after the end of the course of prophylactic treatment with the experimental drugs. […] Functional characteristics of circulating phagocytes (monocytes and neutrophils) were evaluated in whole blood taken into a tube containing EDTA used as an anticoagulant. Mononuclear and polymorphonuclear phagocytes were analyzed on a flow cytofluorimeter using a gating method. […] The hemogram parameters were analyzed on the hematological analyzer Particle counter model PCE 210 (ERMA, Japan) adapted for the study of blood cells of rats and mice.

[2] = tested on: microglia; assay: Functional profile of microglia in 6-OHDA rat models after prophylactic administration; assay type: in vivo; conditions: prophylactic i.p.
Procedure: Methods: Adult mature rodents were used in the study. […] Before prophylactic administration of the experimental drugs, the animals underwent an open field test to assay their general locomotor activity levels and anxiety. The prophylactic course consisted of 10 daily intraperitoneal injections of the drugs (in the case of combination drug, its components were administered at an interval of 2 hours). After the end of prophylactic course, Parkinson's disease was modelled in the animals. […] Ten days after the last (second) apomorphine test, the animals' behavioral responses were assessed in the open field test followed by euthanasia and analysis of functional (metabolic and phenotypic) profiles of phagocytes of different localization. Thus, the study of the functional profile of phagocytes in rat models of Parkinson's disease was performed on day 28 after the end of the course of prophylactic treatment with the experimental drugs. Resident peritoneal macrophages were isolated from sterile cell suspension of peritoneal exudate; enrichment of the suspension was carried out by 2-hour adhesion. Non-adherent and dead cells were separated by centrifugation. Functional characteristics of circulating phagocytes (monocytes and neutrophils) were evaluated in whole blood taken into a tube containing EDTA used as an anticoagulant. Mononuclear and polymorphonuclear phagocytes were analyzed on a flow cytofluorimeter using a gating method. Phagocytes of microglia were isolated using a Percoll density gradient. To assess the phenotypic profile of phagocytes, expression indices of the pan-phagocytic marker CD14 (co-receptor of the bacterial lipopolysaccharide) and the marker of alternative polarization of phagocytes CD206 (mannose receptor 1) were used. To characterize the metabolic profile, oxidative metabolism and phagocytic activity of microglia as well as the pathway of arginine metabolism were studied using flow cytometry and spectrometric methods respectively. FITC-labeled Staphylococcus aureus Wood 46 was used as the object of phagocytosis. The hemogram parameters were analyzed on the hematological analyzer Particle counter model PCE 210 (ERMA, Japan) adapted for the study of blood cells of rats and mice.

[3] = tested on: peritoneal macrophages; assay: Functional and phenotypic properties of peritoneal phagocytes in LPS rat models; assay type: in vivo; conditions: animal models of PD
Procedure: (§1) On the 1st day of the experiment, rats were either operated to model hemi-parkinsonism or sham operated. From the 9th to the 18th day of the experiment, the animals were injected either deuterium-depleted water or the test substance, according to their allocation into groups, for 10 days. On the 8th day of the experiment (before initiation of treatment—apomorphine test I) and on the 21st day of the experiment (after the end of administering the test substance —apomorphine test II) the animals underwent an apomorphine test to analyze the development of hemi-parkinsonism which correlates with the number of destroyed dopaminergic neurons. In addition, a follow-up analysis of fecal water content was carried out, i.e., before the start of treatment on the 8th day after the operation, as well as on the 21st (after the end of treatment) and the 28th day (before autopsy). On the 24th day of the experiment, behavioral tests were carried out in all groups. All animals were weighed before autopsy. […]
To assess the anti-inflammatory and immunomodulating effects of the test substance, microglia and peritoneal macrophages were isolated. Phenotypic and functional features of peripheral blood phagocytes were evaluated without their fractioning (using whole blood). […]
Phagocytic activity of microglia, peritoneal macrophages and peripheral blood phagocytes was analyzed on a flow cytometer using FITC-labeled S. aureus Wood 46 cells as an object of phagocytosis. […]
Oxidative metabolism of phagocytes of various localization was analyzed by flow cytometry using the cell-permeant 2′7′-dichlorodihydrofluorescein-diacetate (DHP) (carboxy-H2DCFDA, Invitrogen, USA) which is converted by intracellular esterases to the nonfluorescent membrane-impermeable carboxy-H2DCF form.
The phenotypic profile of phagocytes of various localization was characterized by the expression of markers of functional maturity and metabolic polarization (CD206, CD80 and CD86), which was determined by flow cytometry and the use of monoclonal antibodies of appropriate specificity marked with fluorescent dyes (Abcam, Becton Dickinson).

[4] = tested on: human T-lymphocytes (CD3+); assay: Spontaneous and PHA-induced proliferative activity and activation-induced apoptosis of T-lymphocytes; assay type: cell-based; design: activation-induced T-cell apoptosis: dose or concentration left out as unconfirmed
Procedure: Materials and Methods: Peripheral blood mononuclear cells were isolated from a healthy donor by density gradient centrifugation over Histopaque-1077 (Sigma, USA). Phytohemagglutinin (PHA) (Sigma, USA) was used to activate the proliferative activity of T-lymphocytes. The cells were exposed to the action of both preparations for 48 hours. A stimulatory (with the addition of the drugs as single components) and costimulatory (with the addition of the drugs in combination with PHA) effects were assessed. CD3 phenotypic marker was used to selectively measure proliferative activity of T-lymphocytes. The T-cell proliferative activity was assessed by analyzing the DNA status of CD3+ cells using a flow cytometry technique. The results are presented in the form of a proliferative index, calculated by the following formula: […]

[5] = Water content of feces; assay type: in vivo; conditions: LPS rat models; administration during 10 days
Procedure: Feces were collected on the 8th, 21st and 28th days of the experiment. They were weighed (wet weight mww) and dried in a thermostat at t=60° C. for 24 hours and then weighed again (dry weight mdw). The water content of feces (M) was calculated as the percentage difference between wet and dry weight of feces according to the following formula: M=100−(mdw×100%/mww).
as §1

[6] = tested on: LPS rat models of Parkinson's disease; assay: Pick-up test; assay type: in vivo; conditions: group V (LPS+^64Zn-asp) versus group IV (LPS)
Text: The pick-up test is a test for increased irritability. The animal is picked up by grasping around the body. Responses were scored as 1, very easy; 2, easy with vocalizations; 3, some difficulty, the rat rears and faces the hand; 4, the rat freezes (with or without vocalization); 5, difficult, the rat avoids the hand by moving away; and 6, very difficult, the rat behaves defensively, and may attack the hand.
On the 1st day of the experiment, rats were either operated to model hemi-parkinsonism or sham operated. From the 9th to the 18th day of the experiment, the animals were injected either deuterium-depleted water or the test substance, according to their allocation into groups, for 10 days. […] On the 24th day of the experiment, behavioral tests were carried out in all groups.

[7] = tested on: neuronal nitric oxide synthase; assay: Neuronal nitric oxide synthase expression in astrocytes in LPS rat models; assay type: in vivo; conditions: sham operation and LPS-induced PD; 1.5 mg/kg
Procedure: as §1

[8] = Body weight in LPS rat models of parkinsonism; assay type: in vivo; conditions: for body weight: in g (unit assumed)
Procedure: On the 1st day of the experiment, rats were either operated to model hemi-parkinsonism or sham operated. From the 9th to the 18th day of the experiment, the animals were injected either deuterium-depleted water or the test substance, according to their allocation into groups, for 10 days. On the 8th day of the experiment (before initiation of treatment—apomorphine test I) and on the 21st day of the experiment (after the end of administering the test substance —apomorphine test II) the animals underwent an apomorphine test to analyze the development of hemi-parkinsonism which correlates with the number of destroyed dopaminergic neurons. In addition, a follow-up analysis of fecal water content was carried out, i.e., before the start of treatment on the 8th day after the operation, as well as on the 21st (after the end of treatment) and the 28th day (before autopsy). On the 24th day of the experiment, behavioral tests were carried out in all groups. All animals were weighed before autopsy. During autopsy, ⅔ of animals from each group were sacrificed by cervical dislocation and brain and blood samples were collected for further biochemical and immunological tests. ⅓ of the animals were used for further immunohistochemical studies of the brain; for this purpose, under anesthesia, a procedure of fast, controlled and uniform fixation of the whole body of the animal was performed using 4% paraformaldehyde perfused through the heart of the rat to obtain the best preservation of the brain architecture for immunohistochemistry. Gage G J, et al., J Vis Exp. 2012 Jul. 30; (65).

## ^64Zn-enriched zinc aspartate [^64Zne-asp]
[1]
  oxidative metabolism in circulating neutrophils: absence of any disturbances
  phagocytic activity of circulating monocytes: did not differ from that of intact animals
[2]
  level of CD14 expression in microglia: increase
  level of CD206 expression in microglia: increase
  oxidative metabolism / ROS production of microglia versus intact animals: at the level of control intact animals
  oxidative metabolism of microglia, higher than in control rat models of Parkinson's disease: twice
[3]
  expression of all phenotypic markers in peritoneal macrophages: significant increase
  oxidative metabolism of the peritoneal exudate cells: decrease
  phagocytic activity of the peritoneal exudate cells: activation
[4]; drug used alone
  activation-induced T-cell apoptosis: did not have any effect
[4]; in combination with PHA, 48 hours
  PHA (mitogen)-induced proliferative activity of T-lymphocytes: stimulatory and costimulatory effects
[4]; in combination with the mitogen
  activation-induced T-cell apoptosis: significantly decreased
[4]; used separately from PHA, 48 hours
  spontaneous proliferative activity of CD3+ T-lymphocytes: dose-dependent weak stimulatory effect
[5]
  water content of feces: did not cause any significant changes
[6]
  irritation in the pick-up test: statistically significant elevation
[7]
  expression of nitric oxide synthase enzyme in astrocytes: increase
[8]; 1st day
  body weight: 193.78 ± 22.21
[8]; 28th day
  body weight: 219.8 ± 18.31
[8]; between 1st and 28th day
  body weight changes, %: 13* %
[8]; day 28 versus day 1 and versus LPS + deuterium-depleted water, listed as 64Zn-asp
  body weight of LPS rat models (in words): statistically significant increase
